# According to ChEMBL document CHEMBL3046547, “Pyrethroid resistance in the tomato red spider mite, Tetranychus evansi, is associated with mutation of the para-type sodium channel” (2011):
# Columns and labels:
# Assay type in all cases: functional
# Tetranychus evansi [1] = assay: Insecticidal activity against Tetranychus evansi ST JEA in clean French bean leaf assessed as mortality at 26 degC and 16 hr day length measured after 48 hr by microimmersion protocol
# Tetranychus urticae [2] = assay: Insecticidal activity against Tetranychus urticae LS-VL (two-spotted spider mite)
# Tetranychus evansi [3] = assay: Insecticidal activity against Tetranychus evansi TOR in clean French bean leaf assessed as mortality at 26 degC and 16 hr day length measured after 48 hr by microimmersion protocol
# Tetranychus evansi [4] = assay: Insecticidal activity against Tetranychus evansi R2 in clean French bean leaf assessed as mortality at 26 degC and 16 hr day length measured after 48 hr by microimmersion protocol
# Tetranychus evansi [5] = assay: Insecticidal activity against Tetranychus evansi R1 in clean French bean leaf assessed as mortality at 26 degC and 16 hr day length measured after 48 hr by microimmersion protocol
# Tetranychus urticae [6] = assay: Insecticidal activity against Tetranychus urticae (two-spotted spider mite)
compound,measurement,setting,value
Cc1c(COC(=O)[C@@H]2[C@H](/C=C(\Cl)C(F)(F)F)C2(C)C)cccc1-c1ccccc1 (relative stereo) [BIFENTHRIN],LC50,Tetranychus evansi [1],135 µg/mL
same,LC50,Tetranychus urticae [2],5.5 µg/mL
same,LC50,Tetranychus evansi [3],92 µg/mL
same,LC50,Tetranychus evansi [4],3560 µg/mL
same,LC50,Tetranychus evansi [5],1860 µg/mL
CCOP(=S)(OCC)Oc1nc(Cl)c(Cl)cc1Cl [CHLORPYRIFOS],LC50,Tetranychus evansi [1],3760 µg/mL
same,LC50,Tetranychus urticae [6],4 µg/mL
same,LC50,Tetranychus evansi [3],4530 µg/mL
same,LC50,Tetranychus evansi [4],4380 µg/mL
same,LC50,Tetranychus evansi [5],3780 µg/mL
CC[C@H](C)[C@H]1O[C@]2(C=C[C@@H]1C)C[C@@H]1C[C@@H](C/C=C(\C)[C@@H](O[C@H]3C[C@H](OC)[C@@H](O[C@H]4C[C@H](OC)[C@@H](O)[C@H](C)O4)[C@H](C)O3)[C@@H](C)/C=C/C=C3\CO[C@@H]4[C@H](O)C(C)=C[C@@H](C(=O)O1)[C@]34O)O2.CO[C@H]1C[C@H](O[C@H]2[C@H](C)O[C@@H](O[C@@H]3/C(C)=C/C[C@@H]4C[C@@H](C[C@]5(C=C[C@H](C)[C@@H](C(C)C)O5)O4)OC(=O)[C@@H]4C=C(C)[C@@H](O)[C@H]5OC/C(=C\C=C\[C@@H]3C)[C@]54O)C[C@@H]2OC)O[C@@H](C)[C@@H]1O [ABAMECTIN],LC50,Tetranychus evansi [1],0.23 µg/mL
same,LC50,Tetranychus evansi [3],0.24 µg/mL
same,LC50,Tetranychus evansi [4],0.19 µg/mL
same,LC50,Tetranychus evansi [5],0.18 µg/mL
